The values that follow are results of earlier work, collected in US20200046643A1, “EXTENDED RELEASE FORMULATIONS OF CANNABINOIDS” (Glatt GmbH, priority 2018, published 2020).

Molecules are shown by their SMILES.

The conditions of series [1]: after oral administration.

With `CCCCCc1cc(O)c2c(c1)OC(C)(C)[C@@H]1CCC(C)=C[C@@H]21` [THC, Δ9-tetrahydrocannabinol], in series [1], the duration of action was 2 to 4 h, the “duration of appetite-increasing action” value is “up to 24 hours” and the “duration of psychoactive action” value was 4 to 6 h.
As to `CCCCCc1cc(O)c2c(c1)OC(C)(C)[C@@H]1CCC(C)=C[C@@H]21` [dronabinol], the solubility in water entry is listed as “insoluble in water”.
As to `C=C(C)[C@@H]1CCC(C)=C[C@H]1c1c(O)cc(CCCCC)cc1O` [CBD, cannabidiol], the solubility in water result is “insoluble in water”. In addition, the “solubility in organic solvents” value (organic solvents) is reported as “soluble in organic solvents”.
